From patent publication US11340239B2, “BNP (1-32) epitope and antibodies directed against said epitope” (Bio-Rad Europe GMBH, priority 2007, dated 2022)
Entries after “also recorded” stand apart in the source; their conditions may differ. Positions of bridges follow the written chain, without caps; N, C: chain ends. Non-standard residues stand in square brackets, D forms with d. Residues, ends and D or L forms follow the SMILES beside them. *: point of attachment. Ahx = NCCCCCC(=O)O; Acm = CC(=O)NC*

Experiments:
[1] = test system: 20G7 antibody; assay: Calibrator standard range in BioPlex 2200 proBNP assay; type: binding; details: FIGS. 14 and 15
Protocol: (§1) The CaliproBNP1 calibrator was diluted to 1 μg/mL, 0.2 μg/mL, 0.1 μg/mL, and 0.02 μg/mL, the CaliproBNP3 calibrator was diluted to 1.6 μg/mL, 0.8 μg/mL, 0.3 μg/mL, 0.06 μg/mL, the CaliproBNP5 and CaliproBNP6 calibrators were diluted to from 100 ng/ml to 0.01 ng/ml in the same 0.1 M succinate buffer, pH 7.6.

[2] = Accelerated liquid stability, BioPlex 2200 proBNP assay
Protocol: (§2) The different compounds were tested at different concentrations diluted in 0.1 M succinate buffer, pH 7.6, containing 5% BSA, 2 mM CaCl2, 10% antiproteases cocktail (Sigma reference P2714), 0.1% Proclin, 0.095% NaN3 and 0.1% sodium benzoate.
(§3) The compounds stability was studied in accelerated condition (room temperature) compared to synthetic BNP(1-32) (Sigma-Aldrich, Etats-Unis, #B-5900) and recombinant proBNP(1-108) (HyTest Ref. 8PRO8) in the following way:
(§4) Recombinant proBNP(1-108), synthetic BNP(1-32) and calibrator peptides were diluted in 0.1 M succinate buffer, pH 7.6 described above. Each solution was divided in 10 tubes placed at room temperature (20° C.±5° C.). Then one tube of each solution was frozen at J0, J+7, J+14, J+21. At J+21, the different solutions were thawed and assayed by means of the BioPlex™ 2200 proBNP assay described in Example 14 or of the immunoassays described in Examples 8.2 and 10.2.
(§5) In the BioPlex™ 2200 proBNP assay, the stability of two concentrations of proBNP(1-108), 10 ng/mL and 1 ng/mL, of CaliproBNP1, 2 μg/mL and 0.125 μg/mL and CaliproBNP3, 1 μg/mL and 0.3 μg/mL, were analyzed. In ELISA format, three concentrations of proBNP(1-108) and BNP(1-32), 1.56 ng/mL, 0.78 ng/ml and 0.39 ng/mL, and of CaliproBNP5, […], 31 ng/mL and 15.6 ng/mL, were analysed.

[3] = Accelerated liquid stability, ELISA format
Protocol: as §2, §3, §4, §5

[4] = test system: 20G7 antibody; assay: Calibrator standard range in ELISA with 20G7 in revelation; type: binding; details: FIGS. 16 and 17
Protocol: as §1

[5] = target: T1, BNP(1-32) (Homo sapiens, UniProt P16860); assay: Immunisation of mice, ELISA of sera; type: in vivo; details: Balb/c mice immunised with KLH-coupled peptide
T1 construct: BNP(1-32): synthetic peptide (Sigma-Aldrich, USA, #B-5900); purchased Sigma-Aldrich B-5900; host or cells: chemical synthesis
T1 sequence (P16860 103-134 limits assumed): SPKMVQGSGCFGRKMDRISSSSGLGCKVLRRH
Protocol: In order to produce monoclonal antibodies, ten mice (Balb/c strain females, 5 weeks old, ref: SIFE055, Charles Rivers, Mass., USA) were immunised using one of the following peptides:
For the first injection, an emulsion of 100 μg of KLH-coupled peptide (at a concentration of 1 mg/ml) diluted to ½ in Freund's complete adjuvant (Sigma, #F-5881) was prepared, and 200 μL of said emulsion (i.e. 100 μg of peptide) were injected subcutaneously into each mouse. At intervals of 20 days, three 200 μL booster shots of an emulsion of KLH-coupled peptide (i.e. 100 μg of peptide) and Freund's incomplete adjuvant (Sigma, #F-5506) were injected subcutaneously, then peritoneally, into each mouse.
An ELISA test was carried out on a solid support to detect the presence of anti-BNP(1-32) antibodies in a mouse serum sample. […]
The microplate was washed three times with 0.1% PBS-T. Each serum from previously immunised mice was subsequently diluted tenfold with 0.1% PBS-T containing 0.1% milk (semi-skimmed), then deposited on the basis of 100 μL per well and left to incubate for two hours at 37° C. […] The enzymatic reaction was stopped by adding 50 μL of sulphuric acid (H2SO4, 4 N) per well, and the OD at 490 nm was subsequently measured in each well.

[6] = room temperature, up to J0 + 21

Compound: CC[C@H](C)[C@H](NC(=O)[C@H](CCCNC(=N)N)NC(=O)[C@H](CC(=O)O)NC(=O)[C@H](CCSC)NC(=O)[C@H](CCCCN)NC(=O)[C@H](CCCNC(=N)N)NC(=O)CNC(=O)[C@H](Cc1ccccc1)NC(=O)[C@H](CO)NC(=O)CCCCCNC(=O)[C@@H](NC(=O)[C@H](CCSC)NC(=O)[C@H](CCCCN)NC(=O)[C@@H]1CCCN1C(=O)[C@H](CO)NC(=O)[C@H](CCCNC(=N)N)NC(=O)[C@@H]1CCCN1C(=O)[C@H](C)NC(=O)[C@H](CCCNC(=N)N)NC(=O)[C@H](CC(C)C)NC(=O)[C@@H](NC(=O)[C@H](Cc1ccc(O)cc1)NC(C)=O)[C@@H](C)O)C(C)C)C(=O)N[C@@H](CO)C(=O)N[C@@H](CO)C(N)=O [CaliproBNP1, Ac-YTLRAPRSPKMV-Ahx-SFGRKMDRISS-CONH2] (Ac-YTLRAPRSPKMV[Ahx]SFGRKMDRISS-NH2)
- signal in the BioPlex 2200 proBNP assay [1]: increasing signal with the compound concentration

Compound: CSCC[C@H](NC(=O)[C@H](CCCCN)NC(=O)[C@H](CCCNC(=N)N)NC(=O)CNC(=O)[C@H](Cc1ccccc1)NC(=O)CCCCCNC(=O)CNC(=O)[C@H](CCC(N)=O)NC(=O)[C@@H](NC(=O)[C@H](CCSC)NC(=O)[C@H](CCCCN)NC(=O)[C@@H]1CCCN1C(=O)[C@H](CO)NC(=O)[C@H](CCCNC(=N)N)NC(=O)[C@@H]1CCCN1C(=O)[C@H](C)NC(=O)[C@H](CCCNC(=N)N)NC(=O)[C@H](CC(C)C)NC(=O)[C@@H](NC(=O)[C@H](Cc1ccc(O)cc1)NC(C)=O)[C@@H](C)O)C(C)C)C(=O)N[C@@H](CC(=O)O)C(=O)N[C@@H](CCCNC(=N)N)C(N)=O [CaliproBNP3, Ac-YTLRAPRSPKMVQG-Ahx-FGRKMDR-CONH2] (Ac-YTLRAPRSPKMVQG[Ahx]FGRKMDR-NH2)
- signal in the BioPlex 2200 proBNP assay [1]: increasing signal with the compound concentration
- Liquid stability at room temperature in buffer, ratio “signal at J0 + X/signal at J0” ([2]; J0 + 7, 0.3 μg/mL): 0.91
- Liquid stability at room temperature in buffer, ratio “signal at J0 + X/signal at J0” ([2]; J0 + 7, 1 μg/mL): 0.92
- Liquid stability at room temperature in buffer, ratio “signal at J0 + X/signal at J0” ([2]; J0 + 14, 0.3 μg/mL): 0.98
- Liquid stability at room temperature in buffer, ratio “signal at J0 + X/signal at J0” ([2]; J0 + 14, 1 μg/mL): 1.02
- Liquid stability at room temperature in buffer, ratio “signal at J0 + X/signal at J0” ([2]; J0 + 21, 0.3 μg/mL): 1.15
- Liquid stability at room temperature in buffer, ratio “signal at J0 + X/signal at J0” ([2]; J0 + 21, 1 μg/mL): 1.06
- stability compared with recombinant proBNP(1-108) [2, 6]: higher stability

Compound: CSCC[C@H](NC(=O)[C@H](CCCCN)NC(=O)[C@H](CCCNC(=N)N)NC(=O)CNC(=O)[C@H](Cc1ccccc1)NC(=O)CCCCCNC(=O)CNC(=O)[C@H](CO)NC(=O)CNC(=O)[C@H](CCC(N)=O)NC(=O)[C@@H](NC(=O)[C@H](CCSC)NC(=O)[C@H](CCCCN)NC(=O)[C@@H]1CCCN1C(=O)[C@H](CO)NC(C)=O)C(C)C)C(=O)N[C@@H](CC(=O)O)C(=O)N[C@@H](CCCNC(=N)N)C(N)=O [CaliproBNP5, Ac-SPKMVQGSG-Ahx-FGRKMDR-CONH2] (Ac-SPKMVQGSG[Ahx]FGRKMDR-NH2)
- Liquid stability at room temperature in buffer, ratio “signal at J0 + X/signal at J0” ([3]; J0 + 7, 0.0156 ng/mL): 1.1
- Liquid stability at room temperature in buffer, ratio “signal at J0 + X/signal at J0” ([3]; J0 + 7, 0.031 ng/mL): 1.06
- Liquid stability at room temperature in buffer, ratio “signal at J0 + X/signal at J0” ([3]; J0 + 7, 0.0625 ng/mL): 1.02
- Liquid stability at room temperature in buffer, ratio “signal at J0 + X/signal at J0” ([3]; J0 + 14, 0.0156 ng/mL): 1.01
- Liquid stability at room temperature in buffer, ratio “signal at J0 + X/signal at J0” ([3]; J0 + 14, 0.031 ng/mL): 1.01
- Liquid stability at room temperature in buffer, ratio “signal at J0 + X/signal at J0” ([3]; J0 + 14, 0.0625 ng/mL): 1.02
- Liquid stability at room temperature in buffer, ratio “signal at J0 + X/signal at J0” ([3]; J0 + 21, 0.0156 ng/mL): 1.10
- Liquid stability at room temperature in buffer, ratio “signal at J0 + X/signal at J0” ([3]; J0 + 21, 0.031 ng/mL): 1.06
- Liquid stability at room temperature in buffer, ratio “signal at J0 + X/signal at J0” ([3]; J0 + 21, 0.0625 ng/mL): 1.1
- stability compared with recombinant proBNP(1-108) and BNP(1-32) [3, 6]: higher stability
- signal in the BNP(1-32) and the proBNP(1-108) assay [4]: signal increasing with the compound concentration

Compound: Ac-TGCFGRKMDRISTSTAIGCKVLCys-CONH2 (Ac-TGCFGRKMDRISTSTAIGCKVLC-NH2; disulfide 3-19; also: KLH-coupled) [SEQ ID NO: 4, immunogen peptide, coupled to KLH]
- immune response / antiserum reactivity towards BNP(1-32) [5]: very reactive; also recorded: much greater

Compound: Ac-YTLRAPRSPKMV-Ahx-FGRKMDR-Ahx-SGLGC*KVLRRH-COOH (Ac-YTLRAPRSPKMV[Ahx]FGRKMDR[Ahx]SGLGC(Acm)KVLRRH-OH; SMILES CSCC[C@H](NC(=O)[C@H](CCCCN)NC(=O)[C@H](CCCNC(=N)N)NC(=O)CNC(=O)[C@H](Cc1ccccc1)NC(=O)CCCCCNC(=O)[C@@H](NC(=O)[C@H](CCSC)NC(=O)[C@H](CCCCN)NC(=O)[C@@H]1CCCN1C(=O)[C@H](CO)NC(=O)[C@H](CCCNC(=N)N)NC(=O)[C@@H]1CCCN1C(=O)[C@H](C)NC(=O)[C@H](CCCNC(=N)N)NC(=O)[C@H](CC(C)C)NC(=O)[C@@H](NC(=O)[C@H](Cc1ccc(O)cc1)NC(C)=O)[C@@H](C)O)C(C)C)C(=O)N[C@@H](CC(=O)O)C(=O)N[C@@H](CCCNC(=N)N)C(=O)NCCCCCC(=O)N[C@@H](CO)C(=O)NCC(=O)N[C@@H](CC(C)C)C(=O)NCC(=O)N[C@@H](CSCNC(C)=O)C(=O)N[C@@H](CCCCN)C(=O)N[C@H](C(=O)N[C@@H](CC(C)C)C(=O)N[C@@H](CCCNC(=N)N)C(=O)N[C@@H](CCCNC(=N)N)C(=O)N[C@@H](Cc1c[nH]cn1)C(=O)O)C(C)C) [CaliproBNP6, triepitopic calibrator]
- signal in the BNP(1-32) and the proBNP(1-108) assay [4]: signal increasing with the compound concentration
